Source: US9012608B2 (priority 2007, dated 2015)

What was measured:
[1] = mouse, in vivo
[2] = tested on: B. anthracis Sterne strain spores; design: species or system Bacillus anthracis; details: in vivo

C[C@H]1c2cccc(O)c2C(=O)C2=C(O)[C@]3(O)C(=O)C(C(N)=O)=C(O)[C@@H](N(C)C)[C@@H]3[C@@H](O)[C@@H]21 [doxycycline]
tolerance [1]: not well tolerated

CN(C)[C@@H]1C(O)=C(C(N)=O)C(=O)[C@@]2(O)C(O)=C3C(=O)c4c(O)cccc4[C@@](C)(O)[C@H]3C[C@@H]12 [tetracycline]
survival [2]: 60%

O=C(O)c1cn(C2CC2)c2cc(N3CCNCC3)c(F)cc2c1=O [ciprofloxacin]
tolerance to selected dose [1]: favorably tested
